Experimental data taken from PubChem BioAssay AID1259407 (Chemical Carcinogenesis Research Information System (CCRIS), 2018).
The source made the active and inactive calls. The rule behind the calls is not given here.

System: CCRIS mutagenicity, Ames/micronucleus/aberration tests
Assay: CCRIS mutagenicity studies
Settings: Method: PREINCUBATION

Measured: mutagenic call

CCCCOC(C)=O
inactive: Test System: AMES SALMONELLA TYPHIMURIUM, Strain/Indicator: TA97, Metabolic Activation: HAMSTER, LIVER, S-9, AROCLOR 1254 (10 OR 30%) inactive; negative | Test System: AMES SALMONELLA TYPHIMURIUM, Strain/Indicator: TA97, Metabolic Activation: NONE inactive; negative | Test System: AMES SALMONELLA TYPHIMURIUM, Strain/Indicator: TA97, Metabolic Activation: RAT, LIVER, S-9, AROCLOR 1254 (10 OR 30%) inactive; negative | Test System: AMES SALMONELLA TYPHIMURIUM, Strain/Indicator: TA98, Metabolic Activation: HAMSTER, LIVER, S-9, AROCLOR 1254 (10 OR 30%) inactive; negative | Test System: AMES SALMONELLA TYPHIMURIUM, Strain/Indicator: TA98, Metabolic Activation: RAT, LIVER, S-9, AROCLOR 1254 (10 OR 30%) inactive; negative | Test System: AMES SALMONELLA TYPHIMURIUM, Strain/Indicator: TA98, Metabolic Activation: RAT, LIVER, S-9, KC 500 inactive; negative | Test System: AMES SALMONELLA TYPHIMURIUM, Strain/Indicator: TA98, Metabolic Activation: RAT, LIVER, S-9, PHENOBARBITAL AND BETA-NAPHTHOFLAVONE inactive; negative | Test System: AMES SALMONELLA TYPHIMURIUM, Strain/Indicator: TA100, Metabolic Activation: HAMSTER, LIVER, S-9, AROCLOR 1254 (10 OR 30%) inactive; negative | Test System: AMES SALMONELLA TYPHIMURIUM, Strain/Indicator: TA100, Metabolic Activation: RAT, LIVER, S-9, AROCLOR 1254 (10 OR 30%) inactive; negative | Test System: AMES SALMONELLA TYPHIMURIUM, Strain/Indicator: TA100, Metabolic Activation: RAT, LIVER, S-9, KC 500 inactive; negative | Test System: AMES SALMONELLA TYPHIMURIUM, Strain/Indicator: TA100, Metabolic Activation: RAT, LIVER, S-9, PHENOBARBITAL AND BETA-NAPHTHOFLAVONE inactive; negative | Test System: AMES SALMONELLA TYPHIMURIUM, Strain/Indicator: TA102, Metabolic Activation: NONE inactive; negative | Test System: AMES SALMONELLA TYPHIMURIUM, Strain/Indicator: TA102, Metabolic Activation: RAT, LIVER, S-9, PHENOBARBITAL AND BETA-NAPHTHOFLAVONE inactive; negative | Test System: AMES SALMONELLA TYPHIMURIUM, Strain/Indicator: TA104, Metabolic Activation: NONE inactive; negative | Test System: AMES SALMONELLA TYPHIMURIUM, Strain/Indicator: TA104, Metabolic Activation: RAT, LIVER, 2-9, PHENOBARBITAL AND BETA-NAPHTHOFLAVONE inactive; negative | Test System: AMES SALMONELLA TYPHIMURIUM, Strain/Indicator: TA104, Metabolic Activation: RAT, LIVER, S-9, PHENOBARBITAL AND BETA-NAPHTHOFLAVONE inactive; negative | Test System: AMES SALMONELLA TYPHIMURIUM, Strain/Indicator: TA1535, Metabolic Activation: HAMSTER, LIVER, S-9, AROCLOR 1254 (10 OR 30%) inactive; negative | Test System: AMES SALMONELLA TYPHIMURIUM, Strain/Indicator: TA1535, Metabolic Activation: RAT, LIVER, S-9, AROCLOR 1254 (10 OR 30%) inactive; negative | Test System: AMES SALMONELLA TYPHIMURIUM, Strain/Indicator: TA1535, Metabolic Activation: RAT, LIVER, S-9, KC 500 inactive; negative | Test System: AMES SALMONELLA TYPHIMURIUM, Strain/Indicator: TA1535, Metabolic Activation: RAT, LIVER, S-9, PHENOBARBITAL AND BETA-NAPHTHOFLAVONE inactive; negative | Test System: AMES SALMONELLA TYPHIMURIUM, Strain/Indicator: TA1537, Metabolic Activation: HAMSTER, LIVER, S-9, AROCLOR 1254 (30%) inactive; negative | Test System: AMES SALMONELLA TYPHIMURIUM, Strain/Indicator: TA1537, Metabolic Activation: RAT, LIVER, S-9, AROCLOR 1254 (30%) inactive; negative | Test System: AMES SALMONELLA TYPHIMURIUM, Strain/Indicator: TA1537, Metabolic Activation: RAT, LIVER, S-9, KC 500 inactive; negative | Test System: AMES SALMONELLA TYPHIMURIUM, Strain/Indicator: TA1537, Metabolic Activation: RAT, LIVER, S-9, PHENOBARBITAL AND BETA-NAPHTHOFLAVONE inactive; negative | Test System: AMES SALMONELLA TYPHIMURIUM, Strain/Indicator: TA1538, Metabolic Activation: NONE inactive; negative | Test System: AMES SALMONELLA TYPHIMURIUM, Strain/Indicator: TA1538, Metabolic Activation: RAT, LIVER, S-9, KC 500 inactive; negative | Test System: E. COLI, Strain/Indicator: WP2UVRA/PKM101, Metabolic Activation: NONE inactive; negative | Test System: E. COLI, Strain/Indicator: WP2UVRA/PKM101, Metabolic Activation: RAT, LIVER, S-9, PHENOBARBITAL AND BETA-NAPHTHOFLAVONE inactive; negative | Test System: E. COLI, Strain/Indicator: WP2 UVRA, Metabolic Activation: NONE inactive; negative | Test System: E. COLI, Strain/Indicator: WP2UVRA, Metabolic Activation: NONE inactive; negative | Test System: E. COLI, Strain/Indicator: WP2 UVRA, Metabolic Activation: RAT, LIVER, S-9, KC 500 inactive; negative | Test System: E. COLI, Strain/Indicator: WP2UVRA, Metabolic Activation: RAT, LIVER, S-9, PHENOBARBITAL AND BETA-NAPHTHOFLAVONE inactive; negative
